From PubChem BioAssay AID2060326 (Molecular Pharmacology Branch, DTP, NCI, 2025)

Test system: MDA-MB-468 multi-cell spheroids, viability
Experiment: Anticancer human tumor MDA-MB-468 cell line growth inhibition [IpAb];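 further: spheroids exposed to agents for seven days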;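 on viability, T/C: 100% = DMSO vehicle control viability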
Conditions: for IC50: curve of first compound; for viability, T/C: stronger effect = lower value
Description: Combinatorial screen of targeted agents with ipatasertib and abemaciclib in multi-cell type tumor spheroids
A high-throughput screen of multi-cell type tumor spheroids was designed to identify active combinations of targeted small molecules and ipatasertib or abemaciclib. Complex spheroids include a stromal component modeled by human endothelial cells (HUVEC) and fibroblasts modeled by human mesenchymal stem cells (MSCs). The concentration ranges selected for each drug and investigational agent were based upon clinically achievable concentrations if the clinical Cmax of the agent was known.
Compounds. The drugs and investigational agents: ipatasertib (NSC767898), abemaciclib(NSC768073), selumetinib (NSC741078), trametinib (758246), adavosertib (NSC754352), everolimus (NSC733504), sapanisertib (NSC764658), vemurafenib (NSC761431), venetoclax (NSC766270), copanlisib (NSC809693), apelisib (NSC765974), palbociblib (NSC758247), vemurafenib (NSC761431), dabrafenib (NSC764134), ravoxertinib (NSC781343), BMS-387032 (NSC767048), sotorasib (NSC818433), talazoparib (NSC767125) and afursertib (NSC778305), were obtained from the National Cancer Institute (NCI) Developmental Therapeutics Program Chemical Repository. The FDA-approved anticancer drug set is available from the NCI Developmental Therapeutics Program. […] The stock solutions were prepared in dimethyl sulfoxide (DMSO, Sigma-Aldrich, St. Louis, MO, cat. D2650) at 800-fold the tested concentration and stored at -70 degrees C prior to their use. All drugs and investigational agents were tested over a range starting from a high concentration at or near the clinical Cmax and decreasing in half-log increments. If the clinical Cmax for an agent had not been determined, the highest concentration tested was 10 microM.
NCI60 Cell Culture. NCI60 cell lines were obtained from the NCI Developmental Therapeutics Program Tumor Repository. For each lot of cells, the Repository performed Applied Biosystems AmpFLSTR Identifiler testing with PCR amplification to confirm consistency with the published Identifier STR profile for each cell line. Cells were kept in continuous culture for no more than 20 passages. The optimal seeding densities for each of the cell lines at each time point assessed were determined prior to performing the concentration response studies. Briefly, the NCI60 human tumor lines were grown as monolayers in RPMI 1640 medium supplemented with 10% FBS and 2 mmol/L L-glutamine.
An additional 9 lines were from the NCI60 cell line panel including MDA-MB-231 breast carcinoma, MDA-MB-468 breast carcinoma, MCF7 breast carcinoma, Hs578T breast carcinoma, MALME-3M melanoma, SK-MEL-2 melanoma, SK-OV-3 ovarian carcinoma, DU-145 prostate carcinoma, PC-3 prostate carcinoma, all cell lines along with major genetic alterations are listed on Table 2. Pooled donor human umbilical vein endothelial cells (HUVEC, Lonza, cat. CC-2519) and human mesenchymal stem cells (hMSC, Lonza, cat. PT-2501) were purchased from Lonza (Walkersville, MD).
PDMR cell lines were grown in complete medium (DC medium): Dulbecco's modified Eagle's medium (DMEM)/F12 supplemented with 5% fetal bovine serum (FBS), 2 mM L-glutamine, 100 U/mL penicillin and 100 µg/ml streptomycin, 0.4 µg/ml hydrocortisone, 10 ng/ml epidermal growth factor (EGF) recombinant human protein, 24 µg/mL adenine, and 0.1 mg/mL primocin. During culture from frozen stock vials, PDMR cells were cultured in the same medium containing 10 µM Y-27632 (see Table 3). The PDCs were cultured in complete DMEM/F12 media without 10 microM Y-27632 dihydrochloride for at least two passages prior to the screen. The pooled donor HUVEC and hMSC were cultured in endothelial cell growth medium 2 (PromoCell, Heidelberg, Germany, cat. C-22011) and mesenchymal stem cell growth medium 2 (PromoCell, cat. C-28009), respectively. For all experiments, HUVEC and hMSC were used at passages </=5.
[…]

[1] = second compound 0.1 µM, first compound 0.0316 µM
[2] = second compound 0.1 µM, first compound 0.1 µM
[3] = second compound 0.316 µM, first compound 0.0316 µM
[4] = second compound 0.316 µM, first compound 0.1 µM
[5] = second compound 1 µM, first compound 0.0316 µM
[6] = second compound 1 µM, first compound 0.1 µM
[7] = second compound 3.16 µM, first compound 0.0316 µM
[8] = second compound 3.16 µM, first compound 0.1 µM
[9] = second compound 10 µM, first compound 0.0316 µM
[10] = second compound 10 µM, first compound 0.1 µM
[11] = second compound 0.1 µM, first compound 0.316 µM
[12] = second compound 0.1 µM, first compound 1 µM
[13] = second compound 0.1 µM, first compound 3.16 µM
[14] = second compound 0.1 µM, first compound 10 µM
[15] = second compound 0.316 µM, first compound 0.316 µM
[16] = second compound 0.316 µM, first compound 1 µM
[17] = second compound 0.316 µM, first compound 3.16 µM
[18] = second compound 0.316 µM, first compound 10 µM
[19] = second compound 1 µM, first compound 0.316 µM
[20] = second compound 1 µM, first compound 1 µM
[21] = second compound 1 µM, first compound 3.16 µM
[22] = second compound 1 µM, first compound 10 µM
[23] = second compound 3.16 µM, first compound 0.316 µM
[24] = second compound 3.16 µM, first compound 1 µM
[25] = second compound 3.16 µM, first compound 3.16 µM
[26] = second compound 3.16 µM, first compound 10 µM
[27] = second compound 10 µM, first compound 0.316 µM
[28] = second compound 10 µM, first compound 1 µM
[29] = second compound 10 µM, first compound 3.16 µM
[30] = second compound 10 µM, first compound 10 µM

Row | SMILES | IC50 (second compound 0.1 µM) | IC50 (second compound 0.316 µM) | IC50 (second compound 1 µM) | IC50 (second compound 3.16 µM) | IC50 (second compound 10 µM) | viability, T/C [1] | viability, T/C [2] | viability, T/C [3] | viability, T/C [4] | viability, T/C [5] | viability, T/C [6] | viability, T/C [7] | viability, T/C [8] | viability, T/C [9] | viability, T/C [10] | viability, T/C [11] | viability, T/C [12] | viability, T/C [13] | viability, T/C [14] | viability, T/C [15] | other results
1 | CC(C)n1nc(-c2ccc3oc(N)nc3c2)c2c(N)ncnc21 + CC(C)NCC(C(=O)N1CCN(c2ncnc3c2C(C)CC3O)CC1)c1ccc(Cl)cc1 | 5.15 nM | 2.36 nM | < 0.316 nM | < 0.316 nM | < 0.316 nM | 15.8% | 7.82% | 9.26% | 5.3% | 5.17% | 3.13% | 2.41% | 1.21% | 0.6% | 0.38% |  |  |  |  |  | viability, T/C (second compound 0.1 µM, first compound 0.000316 µM): 76.6%; viability, T/C (second compound 0.1 µM, first compound 0.001 µM): 72.1%; viability, T/C (second compound 0.1 µM, first compound 0.00316 µM): 58.3%; viability, T/C (second compound 0.1 µM, first compound 0.01 µM): 38.7%; viability, T/C (second compound 0.316 µM, first compound 0.000316 µM): 59%; viability, T/C (second compound 0.316 µM, first compound 0.001 µM): 54.5%; viability, T/C (second compound 0.316 µM, first compound 0.00316 µM): 48.6%; viability, T/C (second compound 0.316 µM, first compound 0.01 µM): 23.4%; viability, T/C (second compound 1 µM, first compound 0.000316 µM): 47.6%; viability, T/C (second compound 1 µM, first compound 0.001 µM): 41%; viability, T/C (second compound 1 µM, first compound 0.00316 µM): 31.1%; viability, T/C (second compound 1 µM, first compound 0.01 µM): 11.3%; viability, T/C (second compound 3.16 µM, first compound 0.000316 µM): 31.4%; viability, T/C (second compound 3.16 µM, first compound 0.001 µM): 25.4%; viability, T/C (second compound 3.16 µM, first compound 0.00316 µM): 16.8%; viability, T/C (second compound 3.16 µM, first compound 0.01 µM): 5.94%; viability, T/C (second compound 10 µM, first compound 0.000316 µM): 15.7%; viability, T/C (second compound 10 µM, first compound 0.001 µM): 14.3%; viability, T/C (second compound 10 µM, first compound 0.00316 µM): 7.69%; viability, T/C (second compound 10 µM, first compound 0.01 µM): 3.03%
2 | CC1(C)CCC(CN2CCN(c3ccc(C(=O)NS(=O)(=O)c4ccc(NCC5CCOCC5)c([N+](=O)[O-])c4)c(Oc4cnc5[nH]ccc5c4)c3)CC2)=C(c2ccc(Cl)cc2)C1 + CC(C)NCC(C(=O)N1CCN(c2ncnc3c2C(C)CC3O)CC1)c1ccc(Cl)cc1 | 4760 nM | 3030 nM | 1380 nM | < 31.6 nM | < 31.6 nM | 109% | 89.5% | 69.8% | 72.2% | 56.9% | 63.8% | 34.4% | 37.7% | 17.4% | 18.9% | 98.3% | 94.6% | 71.3% | 11.3% | 82.4% | viability, T/C [16]: 69.5%; viability, T/C [17]: 49.3%; viability, T/C [18]: 7.93%; viability, T/C [19]: 55%; viability, T/C [20]: 56.6%; viability, T/C [21]: 34.1%; viability, T/C [22]: 5.02%; viability, T/C [23]: 38.5%; viability, T/C [24]: 36.4%; viability, T/C [25]: 26.1%; viability, T/C [26]: 2.19%; viability, T/C [27]: 17.9%; viability, T/C [28]: 19.5%; viability, T/C [29]: 9.97%; viability, T/C [30]: 0.99%
3 | CCCS(=O)(=O)Nc1ccc(F)c(C(=O)c2c[nH]c3ncc(-c4ccc(Cl)cc4)cc23)c1F + CC(C)NCC(C(=O)N1CCN(c2ncnc3c2C(C)CC3O)CC1)c1ccc(Cl)cc1 | > 10000 nM | 9960 nM | 498 nM | < 31.6 nM | < 31.6 nM | 86.3% | 87.3% | 62.2% | 60.7% | 58.4% | 53.6% | 35.7% | 34.1% | 17.3% | 18.3% | 98.5% | 98% | 71.7% | 50.1% | 62.5% | viability, T/C [16]: 74.8%; viability, T/C [17]: 53.3%; viability, T/C [18]: 39.3%; viability, T/C [19]: 52.6%; viability, T/C [20]: 46%; viability, T/C [21]: 40.1%; viability, T/C [22]: 27.8%; viability, T/C [23]: 29.4%; viability, T/C [24]: 31.3%; viability, T/C [25]: 30.1%; viability, T/C [26]: 18.6%; viability, T/C [27]: 18.9%; viability, T/C [28]: 16.9%; viability, T/C [29]: 13.7%; viability, T/C [30]: 2.03%
